According to ChEMBL document CHEMBL1201862, “PubChem BioAssay data set” (2004):
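All cell lines were grown in 96-well plates and treated with compound for 48 hours. At the GI50, growth is halved.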 Activity calls are given as the source filed them. Rule as the data show it: active = GI50 up to about 1.1 µM and inactive = higher.

Key:
Assay in all cases: growth of human tumour cells (NCI), 48 h
[1] = tested on: SR
[2] = tested on: OVCAR-8
[3] = tested on: NCI-H460
[4] = tested on: Malme-3M
[5] = tested on: RXF 393
[6] = tested on: SF-539
[7] = tested on: A549
[8] = tested on: UACC-257
[9] = tested on: HCT-116
[10] = tested on: CCRF-CEM
[11] = tested on: SNB-75
[12] = tested on: NCI-H522
[13] = tested on: RPMI-8226
[14] = tested on: SK-MEL-28
[15] = tested on: MDA-N
[16] = tested on: UACC-62
[17] = tested on: NCI-H23
[18] = tested on: K562
[19] = tested on: CAKI-1
[20] = tested on: TK-10
[21] = tested on: PC-3
[22] = tested on: OVCAR-4
[23] = tested on: SW-620
[24] = tested on: SK-MEL-5
[25] = tested on: U-251
[26] = tested on: OVCAR-5
[27] = tested on: ACHN
[28] = tested on: BT-549
[29] = tested on: MDA-MB-435
[30] = tested on: SF-268
[31] = tested on: Hs-578T
[32] = tested on: HOP-92
[33] = tested on: SNB-19
[34] = tested on: HCT-15
[35] = tested on: EKVX
[36] = tested on: SN12C
[37] = tested on: MDA-MB-231
[38] = tested on: MCF7
[39] = tested on: UO-31
[40] = tested on: KM12
[41] = tested on: MOLT-4
[42] = tested on: DU-145
[43] = tested on: OVCAR-3
[44] = tested on: IGROV-1
[45] = tested on: SF-295
[46] = tested on: SK-OV-3
[47] = tested on: LOX IMVI
[48] = tested on: A498
[49] = tested on: NCI/ADR-RES
[50] = tested on: HOP-62
[51] = tested on: SK-MEL-2
[52] = tested on: COLO 205
[53] = tested on: M14
[54] = tested on: HT-29
[55] = tested on: 786-0
[56] = tested on: T47D
[57] = tested on: NCI-H226
[58] = tested on: HCC 2998
[59] = tested on: HL-60

Cc1cc(Cl)nc2ccc(Cc3ccc4nc(Cl)cc(C)c4c3)cc12
GI50 [1]: 85.3 µM (inactive)
GI50 [2]: 28.6 µM (inactive)
GI50 [3]: 41.5 µM (inactive)
GI50 [4]: 21.8 µM (inactive)
GI50 [5]: 11 µM (inactive)
GI50 [6]: 12.6 µM (inactive)
GI50 [7]: 47.5 µM (inactive)
GI50 [8]: 27 µM (inactive)
GI50 [9]: 22.8 µM (inactive)
GI50 [10]: > 100 µM (inactive)
GI50 [11]: 3.3 µM (inactive)
GI50 [12]: 24.2 µM (inactive)
GI50 [13]: 36.6 µM (inactive)
GI50 [14]: > 100 µM (inactive)
GI50 [15]: 47.3 µM (inactive)
GI50 [16]: 51.6 µM (inactive)
GI50 [17]: 44.6 µM (inactive)
GI50 [18]: > 100 µM (inactive)
GI50 [19]: 39.8 µM (inactive)
GI50 [20]: 20.7 µM (inactive)
GI50 [21]: 42.7 µM (inactive)
GI50 [22]: 34.8 µM (inactive)
GI50 [23]: > 100 µM (inactive)
GI50 [24]: 23.8 µM (inactive)
GI50 [25]: 16.2 µM (inactive)
GI50 [26]: > 100 µM (inactive)
GI50 [27]: 16 µM (inactive)
GI50 [28]: 42.2 µM (inactive)
GI50 [29]: 65.2 µM (inactive)
GI50 [30]: 43.2 µM (inactive)
GI50 [31]: 36.3 µM (inactive)
GI50 [32]: 43.1 µM (inactive)
GI50 [33]: 32.4 µM (inactive)
GI50 [34]: 49.3 µM
GI50 [35]: 44.3 µM (inactive)
GI50 [36]: 85.1 µM (inactive)
GI50 [37]: 17.1 µM (inactive)
GI50 [38]: 19.1 µM (inactive)
GI50 [39]: 37.6 µM (inactive)
GI50 [40]: > 100 µM (inactive)
GI50 [41]: > 100 µM (inactive)
GI50 [42]: > 100 µM (inactive)
GI50 [43]: 39.3 µM (inactive)
GI50 [44]: 31.7 µM (inactive)
GI50 [45]: 22 µM (inactive)
GI50 [46]: 14 µM (inactive)
GI50 [47]: 56.5 µM (inactive)
GI50 [48]: 21 µM (inactive)
GI50 [49]: 33.5 µM (inactive)
GI50 [50]: 18.5 µM (inactive)
GI50 [51]: 47.5 µM (inactive)
GI50 [52]: > 100 µM (inactive)
GI50 [53]: 85.3 µM (inactive)
GI50 [54]: 68.5 µM (inactive)
GI50 [55]: 12.2 µM (inactive)
GI50 [56]: 6.25 µM (inactive)
GI50 [57]: 93.3 µM (inactive)

C=CCn1c(S)nnc1C12CC3CC(CC(C3)C1)C2
GI50 [1]: 1.51 µM (inactive)
GI50 [58]: 76.4 µM (inactive)
GI50 [2]: 92.9 µM (inactive)
GI50 [3]: 53.5 µM (inactive)
GI50 [4]: > 100 µM (inactive)
GI50 [5]: > 100 µM (inactive)
GI50 [6]: > 100 µM (inactive)
GI50 [8]: 52.2 µM (inactive)
GI50 [9]: 46.1 µM (inactive)
GI50 [10]: 20.1 µM (inactive)
GI50 [11]: > 100 µM (inactive)
GI50 [12]: 25 µM (inactive)
GI50 [13]: 36.7 µM (inactive)
GI50 [14]: > 100 µM (inactive)
GI50 [15]: 45.4 µM (inactive)
GI50 [16]: 90.8 µM (inactive)
GI50 [17]: 94.4 µM (inactive)
GI50 [18]: 25.4 µM (inactive)
GI50 [20]: 50.7 µM (inactive)
GI50 [21]: 32.7 µM (inactive)
GI50 [22]: 58.7 µM (inactive)
GI50 [23]: > 100 µM (inactive)
GI50 [25]: 86.9 µM (inactive)
GI50 [26]: > 100 µM (inactive)
GI50 [27]: 54.3 µM (inactive)
GI50 [28]: 50.6 µM (inactive)
GI50 [29]: 48.9 µM (inactive)
GI50 [30]: > 100 µM (inactive)
GI50 [31]: > 100 µM (inactive)
GI50 [33]: > 100 µM (inactive)
GI50 [34]: 44.3 µM
GI50 [36]: > 100 µM (inactive)
GI50 [37]: > 100 µM (inactive)
GI50 [38]: 42.9 µM (inactive)
GI50 [39]: 33 µM (inactive)
GI50 [59]: 17.2 µM (inactive)
GI50 [40]: 75.5 µM (inactive)
GI50 [41]: 20.9 µM (inactive)
GI50 [42]: 69.3 µM (inactive)
GI50 [43]: 59.4 µM (inactive)
GI50 [44]: > 100 µM (inactive)
GI50 [45]: 41.3 µM (inactive)
GI50 [46]: > 100 µM (inactive)
GI50 [47]: 86.5 µM (inactive)
GI50 [48]: > 100 µM (inactive)
GI50 [49]: 55.1 µM (inactive)
GI50 [50]: > 100 µM (inactive)
GI50 [51]: 67.8 µM (inactive)
GI50 [52]: > 100 µM (inactive)
GI50 [53]: 61 µM (inactive)
GI50 [54]: 50.1 µM (inactive)
GI50 [55]: > 100 µM (inactive)
GI50 [56]: 32.8 µM (inactive)
GI50 [57]: > 100 µM (inactive)

C/C(=C/CC[C@](C)(OC1OC(CO)C(O)C(O)C1OC1OC(C)C(O)C(O)C1O)[C@H]1CC[C@]2(C)[C@@H]1CC[C@@H]1[C@@]3(C)CC[C@H](O)C(C)(C)[C@@H]3C[C@H](O)[C@]12C)CO (stereo partly drawn)
GI50 [1]: > 100 µM (inactive)
GI50 [2]: > 100 µM (inactive)
GI50 [3]: > 100 µM (inactive)
GI50 [4]: > 100 µM (inactive)
GI50 [5]: > 100 µM (inactive)
GI50 [6]: > 100 µM (inactive)
GI50 [7]: > 100 µM (inactive)
GI50 [8]: > 100 µM (inactive)
GI50 [9]: > 100 µM (inactive)
GI50 [10]: > 100 µM (inactive)
GI50 [11]: > 100 µM (inactive)
GI50 [12]: > 100 µM (inactive)
GI50 [13]: > 100 µM (inactive)
GI50 [14]: > 100 µM (inactive)
GI50 [15]: > 100 µM (inactive)
GI50 [16]: > 100 µM (inactive)
GI50 [17]: > 100 µM (inactive)
GI50 [18]: > 100 µM (inactive)
GI50 [19]: > 100 µM (inactive)
GI50 [20]: > 100 µM (inactive)
GI50 [21]: > 100 µM (inactive)
GI50 [22]: > 100 µM (inactive)
GI50 [23]: > 100 µM (inactive)
GI50 [24]: > 100 µM (inactive)
GI50 [25]: > 100 µM (inactive)
GI50 [26]: > 100 µM (inactive)
GI50 [27]: > 100 µM (inactive)
GI50 [28]: > 100 µM (inactive)
GI50 [29]: > 100 µM (inactive)
GI50 [30]: > 100 µM (inactive)
GI50 [31]: > 100 µM (inactive)
GI50 [32]: > 100 µM (inactive)
GI50 [33]: > 100 µM (inactive)
GI50 [34]: > 10 µM
GI50 [35]: > 100 µM (inactive)
GI50 [36]: > 100 µM (inactive)
GI50 [37]: > 100 µM (inactive)
GI50 [38]: > 100 µM (inactive)
GI50 [39]: > 100 µM (inactive)
GI50 [59]: > 100 µM (inactive)
GI50 [40]: > 100 µM (inactive)
GI50 [41]: > 100 µM (inactive)
GI50 [42]: > 100 µM (inactive)
GI50 [43]: > 100 µM (inactive)
GI50 [44]: > 100 µM (inactive)
GI50 [45]: > 100 µM (inactive)
GI50 [46]: > 100 µM (inactive)
GI50 [47]: > 100 µM (inactive)
GI50 [48]: > 100 µM (inactive)
GI50 [49]: > 100 µM (inactive)
GI50 [50]: > 100 µM (inactive)
GI50 [52]: > 100 µM (inactive)
GI50 [53]: > 100 µM (inactive)
GI50 [54]: > 100 µM (inactive)
GI50 [55]: > 100 µM (inactive)
GI50 [56]: > 100 µM (inactive)
GI50 [57]: > 100 µM (inactive)
